From patent publication US12247028B2, “Azabicyclo and diazepine derivatives” (Alcon Inc., priority 2017, dated 2025)
Like-named read-outs stand apart in the source and are kept apart here.

Tests used:
[1] = target: T1, Human muscarinic receptor M3 (Homo sapiens, UniProt P20309); experiment: Human muscarinic receptor assay M3, [3H]4-DAMP binding; details: for Ki: 0.2 nM [3H]4-DAMP, cell membrane homogenates
T1 construct: host or cells: cell membrane homogenates
Procedure: (§1) Human Muscarinic Receptor Assay
(§2) Cell membrane homogenates (8 μg protein) are incubated for 60 min at 22° C. with 0.2 nM [3H]4-DAMP in the absence or presence of the test compound in a buffer containing 10 mM Tris-HCl (pH 7.4) and 2 mM EDTA. Nonspecific binding is determined in the presence of 1 μM atropine. Following incubation, the samples are filtered rapidly under vacuum through glass fiber filters (GF/B, Packard) presoaked with 0.3% PEI and rinsed several times with ice-cold 50 mM Tris-HCl using a 96-sample cell harvester (Unifilter, Packard). The filters are dried then counted for radioactivity in a scintillation counter (Topcount, Packard) using a scintillation cocktail (Microscint 0, Packard). The results are expressed as a percent inhibition of the control radioligand specific binding. The standard reference compound is 4-DAMP, which is tested in each experiment at several concentrations to obtain a competition curve from which its Ki and IC50 are calculated.

[2] = target: T2, Human muscarinic receptor M2 (Homo sapiens, UniProt P08172); experiment: Human muscarinic receptor assay M2, [3H]AF-DX 384 binding; details: for inhibition at 1 µM: read-out: percent inhibition of the control radioligand specific binding, M2
T2 construct: host or cells: cell membrane homogenates
T2 sequence (P08172 1-466): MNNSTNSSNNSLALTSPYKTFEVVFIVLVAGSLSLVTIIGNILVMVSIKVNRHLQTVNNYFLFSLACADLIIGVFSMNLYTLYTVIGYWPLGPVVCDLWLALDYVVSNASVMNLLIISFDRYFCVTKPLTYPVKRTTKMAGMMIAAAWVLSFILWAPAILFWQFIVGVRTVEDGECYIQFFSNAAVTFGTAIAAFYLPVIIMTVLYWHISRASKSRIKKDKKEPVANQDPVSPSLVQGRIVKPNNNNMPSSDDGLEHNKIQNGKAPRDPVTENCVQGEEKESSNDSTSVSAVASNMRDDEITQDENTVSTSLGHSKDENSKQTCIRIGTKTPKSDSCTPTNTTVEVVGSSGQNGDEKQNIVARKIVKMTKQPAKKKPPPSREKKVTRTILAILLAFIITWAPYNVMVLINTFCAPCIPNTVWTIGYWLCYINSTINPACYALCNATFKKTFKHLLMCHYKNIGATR
Procedure: as §1
(§3) Cell membrane homogenates (60 μg protein) are incubated for 60 min at 22° C. with 2 nM [3H]AF-DX 384 in the absence or presence of the test compound in a buffer containing 50 mM Tris-HCl (pH 7.4), 120 mM NaCl, 5 mM KCl, 5 mM MgCl2 and 1 mM EDTA. Nonspecific binding is determined in the presence of 1 μM atropine. Following incubation, the samples are filtered rapidly under vacuum through glass fiber filters (GF/B, Packard) presoaked with 0.3% PEI and rinsed several times with ice-cold 50 mM Tris-HCl using a 96-sample cell harvester (Unifilter, Packard). The filters are dried then counted for radioactivity in a scintillation counter (Topcount, Packard) using a scintillation cocktail (Microscint 0, Packard). The results are expressed as a percent inhibition of the control radioligand specific binding. The standard reference compound is methoctramine, which is tested in each experiment at several concentrations to obtain a competition curve from which its Ki and IC50 are calculated.

[3] = target: T3, Human muscarinic receptor M5 (Homo sapiens, UniProt P08912); experiment: Human muscarinic receptor assay M5, [3H]4-DAMP binding
T3 construct: host or cells: cell membrane homogenates
T3 sequence (P08912 1-532): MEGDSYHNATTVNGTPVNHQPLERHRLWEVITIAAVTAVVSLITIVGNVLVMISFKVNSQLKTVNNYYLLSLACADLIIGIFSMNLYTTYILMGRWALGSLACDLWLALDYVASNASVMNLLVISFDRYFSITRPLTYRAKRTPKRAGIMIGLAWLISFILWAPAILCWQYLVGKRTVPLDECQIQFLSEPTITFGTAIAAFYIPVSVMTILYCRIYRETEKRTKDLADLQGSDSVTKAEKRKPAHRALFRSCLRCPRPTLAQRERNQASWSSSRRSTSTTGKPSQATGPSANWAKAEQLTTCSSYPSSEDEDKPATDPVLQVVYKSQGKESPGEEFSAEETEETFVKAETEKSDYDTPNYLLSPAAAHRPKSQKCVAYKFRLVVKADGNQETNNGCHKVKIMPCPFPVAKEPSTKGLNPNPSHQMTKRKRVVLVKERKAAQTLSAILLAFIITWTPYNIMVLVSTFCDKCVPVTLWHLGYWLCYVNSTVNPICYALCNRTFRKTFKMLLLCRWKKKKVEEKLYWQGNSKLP
Procedure: as §1
as §2, with “(15” for “(8”, “0.3” for “0.2”

[4] = target: T4, Human muscarinic receptor M4 (Homo sapiens, UniProt P08173); experiment: Human muscarinic receptor assay M4, [3H]4-DAMP binding
T4 construct: host or cells: cell membrane homogenates
T4 sequence (P08173 1-479): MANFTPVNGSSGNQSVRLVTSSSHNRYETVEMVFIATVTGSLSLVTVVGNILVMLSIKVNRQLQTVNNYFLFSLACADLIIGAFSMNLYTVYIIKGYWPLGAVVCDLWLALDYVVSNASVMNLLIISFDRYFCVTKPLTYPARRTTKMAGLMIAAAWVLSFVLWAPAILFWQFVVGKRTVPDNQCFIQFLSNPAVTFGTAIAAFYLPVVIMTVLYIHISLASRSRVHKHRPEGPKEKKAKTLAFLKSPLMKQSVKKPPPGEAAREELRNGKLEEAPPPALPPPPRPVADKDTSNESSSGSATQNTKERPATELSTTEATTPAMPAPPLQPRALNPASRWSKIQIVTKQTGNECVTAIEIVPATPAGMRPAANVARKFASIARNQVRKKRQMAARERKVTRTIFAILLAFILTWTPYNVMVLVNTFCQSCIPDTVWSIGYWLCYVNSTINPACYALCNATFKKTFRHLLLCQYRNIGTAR
Procedure: as §1
as §2, with “(16” for “(8”

[5] = target: T5, Human muscarinic receptor M1 (Homo sapiens, UniProt P11229); experiment: Human muscarinic receptor assay M1, [3H]pirenzepine binding; details: 2 nM [3H]pirenzepine, cell membrane homogenates
T5 construct: host or cells: cell membrane homogenates
T5 sequence (P11229 1-460): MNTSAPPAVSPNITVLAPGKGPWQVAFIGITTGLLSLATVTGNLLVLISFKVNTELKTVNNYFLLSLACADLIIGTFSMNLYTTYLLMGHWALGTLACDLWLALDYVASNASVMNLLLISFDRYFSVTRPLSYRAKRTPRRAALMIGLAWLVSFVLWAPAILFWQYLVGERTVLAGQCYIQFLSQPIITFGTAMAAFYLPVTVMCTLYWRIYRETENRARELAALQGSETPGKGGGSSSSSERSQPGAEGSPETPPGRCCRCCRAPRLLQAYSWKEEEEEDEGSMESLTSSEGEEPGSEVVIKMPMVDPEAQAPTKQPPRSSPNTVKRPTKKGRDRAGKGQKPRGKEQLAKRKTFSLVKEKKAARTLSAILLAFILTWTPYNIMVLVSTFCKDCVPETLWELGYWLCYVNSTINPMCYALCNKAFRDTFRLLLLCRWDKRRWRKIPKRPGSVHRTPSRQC
Procedure: as §1
as §3, with “(45” for “(60”, “[3H]pirenzepine” for “[3H]AF-DX 384”, “pirenzepine,” for “methoctramine,”

[6] = topical 1% drop; cited from earlier work
[7] = 0.3 nM [3H]4-DAMP, cell membrane homogenates, read-out: Ki M5

T1 sequence (P20309 whole entry): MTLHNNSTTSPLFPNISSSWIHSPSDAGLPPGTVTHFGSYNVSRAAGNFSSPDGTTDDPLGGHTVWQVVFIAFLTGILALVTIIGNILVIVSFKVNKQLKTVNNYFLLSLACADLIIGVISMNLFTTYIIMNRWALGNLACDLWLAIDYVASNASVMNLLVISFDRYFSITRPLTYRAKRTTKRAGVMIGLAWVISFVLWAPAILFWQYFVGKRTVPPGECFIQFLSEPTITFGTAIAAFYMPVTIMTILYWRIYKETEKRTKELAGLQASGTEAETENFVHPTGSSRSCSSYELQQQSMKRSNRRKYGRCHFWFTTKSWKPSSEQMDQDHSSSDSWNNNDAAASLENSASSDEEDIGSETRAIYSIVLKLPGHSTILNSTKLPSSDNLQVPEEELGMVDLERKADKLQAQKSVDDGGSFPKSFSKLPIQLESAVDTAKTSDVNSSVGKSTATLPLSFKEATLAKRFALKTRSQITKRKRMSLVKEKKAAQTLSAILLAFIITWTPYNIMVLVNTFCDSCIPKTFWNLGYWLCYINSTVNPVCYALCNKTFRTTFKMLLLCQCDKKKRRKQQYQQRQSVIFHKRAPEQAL

For `CN1C2CCC1CC(NC(=O)C(C)(CO)c1ccccc1)C2` (stereo not shown), which Ki [1] is on record?
Its Ki is 150 nM.

And the inhibition at 1 µM [2]?
The inhibition at 1 µM was less than 50%.

And the Ki [3]?
Its Ki is 52 nM.

And the Ki [4]?
Its Ki is 83 nM.

What about the Ki [5] of the same compound?
The Ki was 230 nM.

Which results are given for `CN1C2CCC1CC(OC(=O)C(CO)(CO)c1ccccc1)C2` (stereo not shown)?
Ki [1]: 4.1 nM; Ki [2]: 54 nM; Ki [3]: 4.5 nM; Ki [4]: 3 nM; Ki [5]: 17 nM

Which Ki [1] does the source give for `COCC(C)(C(=O)OC1CC2CCC(C1)N2C)c1ccccc1` (stereo not shown) here?
The Ki was 13 nM.

What about the Ki [2] of the same compound?
The Ki was 72 nM.

What about the Ki [3] of the same compound?
Its Ki is 8.5 nM.

What about the Ki [4] of the same compound?
Its Ki is 7.4 nM.

What about the Ki [5] of the same compound?
Its Ki is 19 nM.

With `CCC(CO)(C(=O)OC1CC2CCC(C1)N2C)c1ccccc1` (stereo not shown) as the compound, how does the Ki [1] read?
Its Ki is 1.3 nM.

What about the Ki [2] of the same compound?
The Ki was 35 nM.

And the Ki [3]?
Its Ki is 1.1 nM.

What about the Ki [4] of the same compound?
The Ki was 0.71 nM.

What about the Ki [5] of the same compound?
The Ki was 4.4 nM.

For `COc1ccc(CC(CO)(C(=O)OC2CC3CCC(C2)N3C)c2ccccc2)cc1` (stereo not shown), which Ki [1] is on record?
The Ki was 610 nM.

And the inhibition at 1 µM [2]?
Its inhibition at 1 µM is less than 50%.

What about the Ki [3, 7] of the same compound?
Its Ki is 320 nM.

And the inhibition at 1 µM ([4]; read-out: percent inhibition of the control radioligand specific binding, M4)?
The inhibition at 1 µM was less than 50%.

And the Ki [5]?
Its Ki is 570 nM.

Which results are given for `CN1C2CCC1CC(OC(=O)C(F)(CO)c1ccccc1)C2` (stereo not shown)?
Ki [1]: 2.9 nM; Ki [2]: 15 nM; Ki [3]: 0.71 nM; Ki [4]: 0.48 nM; Ki [5]: 3.5 nM

What does the source list for `CN1C2CCC1CC(OC(=O)C(CO)(CC1CC1)c1ccccc1)C2` (stereo not shown)?
Ki [1]: 1.3 nM; Ki [2]: 39 nM; Ki [3]: 0.99 nM; Ki [4]: 0.57 nM; Ki [5]: 3.4 nM

With `CN1[C@@H]2CC[C@H]1C[C@@H](OC(=O)C(CO)c1ccccc1)C2` (stereo partly shown) [atropine] as the compound, how does the “efficacy in the treatment of myopia” value [6] read?
Its value is “effective”.

What about the side effects [6] of the same compound?
Its side effects is “numerous side effects were reported, including mydriasis (dilation of the pupil) and blurring of near vision due to cycloplegia”.

For `CN1C2CCC1CC(OC(=O)C(CO)(Cc1ccc(F)cc1)c1ccccc1)C2` (stereo not shown), which Ki [1] is on record?
The Ki was 310 nM.

What about the inhibition at 1 µM [2] of the same compound?
The inhibition at 1 µM was less than 50%.

What about the Ki [3] of the same compound?
The Ki was 160 nM.

And the Ki [4]?
The Ki was 200 nM.

And the Ki [5]?
Its Ki is 300 nM.

Which results are given for `CN1C2CCC1CC(OC(=O)C(C)(CF)c1ccccc1)C2` (stereo not shown)?
Ki [1]: 14 nM; Ki [2]: 110 nM; Ki [3]: 7.2 nM; Ki [4]: 5.8 nM; Ki [5]: 27 nM

With `CN1C2CCC1CC(OC(=O)C(CO)(Cc1ccccc1)c1ccccc1)C2` (stereo not shown) as the compound, how does the inhibition at 1 µM ([1]; @ 1 μM, read-out: percent inhibition of the control radioligand specific binding, M3) read?
The inhibition at 1 µM was less than 50%.

And the inhibition at 1 µM [2]?
Its inhibition at 1 µM is less than 50%.

And the Ki [3, 7]?
Its Ki is 280 nM.

And the Ki ([4]; 0.2 nM [3H]4-DAMP, cell membrane homogenates, read-out: Ki M4)?
Its Ki is 230 nM.

And the Ki [5]?
Its Ki is 600 nM.

For `CN1C2CCC1CC(OC(=O)C(C)(CO)c1ccccc1)C2` (stereo not shown), which Ki [1] is on record?
The Ki was 2 nM.

What about the Ki [2] of the same compound?
The Ki was 11 nM.

What about the Ki [3] of the same compound?
Its Ki is 0.68 nM.

And the Ki [4]?
Its Ki is 0.58 nM.

What about the Ki [5] of the same compound?
The Ki was 3.1 nM.

Which Ki [1] does the source give for `CN1C2CCC1CC(OC(=O)C(CO)(CC(F)(F)F)c1ccccc1)C2` (stereo not shown) here?
The Ki was 2 nM.

And the Ki ([2]; 2 nM [3H]AF-DX 384, cell membrane homogenates, read-out: Ki M2)?
The Ki was 240 nM.

And the Ki [3]?
The Ki was 1.9 nM.

What about the Ki [4] of the same compound?
The Ki was 1.7 nM.

And the Ki [5]?
Its Ki is 8.2 nM.

What does the source list for `CN1C2CCC1CC(OC(=O)C(C)(CO)c1cccs1)C2` (stereo not shown)?
Ki [1]: 0.78 nM; Ki [2]: 7.9 nM; Ki [3]: 0.71 nM; Ki [4]: 0.39 nM; Ki [5]: 2.5 nM
